Consider one molecule from paper PMC3361968 (Chemistry & biology, 2012).

One test addresses cathepsin S (Mus musculus, UniProt O70370). Put plainly: activity-based labelling in living RAW cells, SDS-PAGE in-gel fluorescence. The format is cell-based.
A further test addresses cathepsin B (Mus musculus, UniProt P10605). The test is described as above. The format is cell-based.

pEC50: −log10 of the molar value.

cathepsin B, sequence (P10605 80-126): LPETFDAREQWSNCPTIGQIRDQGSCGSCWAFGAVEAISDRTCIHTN
cathepsin B, sequence (P10605 129-333): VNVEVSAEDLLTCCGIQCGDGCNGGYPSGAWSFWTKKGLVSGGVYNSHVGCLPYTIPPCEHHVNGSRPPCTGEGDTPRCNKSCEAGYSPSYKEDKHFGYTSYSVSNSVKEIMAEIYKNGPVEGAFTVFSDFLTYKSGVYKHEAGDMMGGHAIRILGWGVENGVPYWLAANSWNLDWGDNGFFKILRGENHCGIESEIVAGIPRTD

As usually defined, the pEC50 is the negative decadic logarithm of the EC50, by convention in mol/L. As to `CCN1C(=CC=CC=CC2=[N+](CCCCCC(=O)NCCCC[C@H](NC(=O)[C@H](Cc3ccccc3)NC(=O)OCc3ccccc3)C(=O)COC(=O)c3c(C)cccc3C)c3ccc(S(=O)(=O)O)cc3C2(C)C)C(C)(C)c2cc(S(=O)(=O)O)ccc21` [GB123], the pEC50 at cathepsin S was 5.89; on cathepsin B, 5.80.
